# Source: publication PMC12274840 (The Journal of Biological Chemistry, 2025)
# Where two headings read alike, the source gives them in different places.
# Tests used:
# [1] = test system: E. coli KA797 cells carrying BlaC position 105 library; format: cell-based, Escherichia coli; settings: ampicillin; for Fi AMP AVG: average of replicates
# [2] = test system: E. coli KA797 cells carrying CTX-M-14 position 105 library; format: cell-based
# [3] = test system: E. coli KA797 cells carrying KPC-2 position 105 library; format: cell-based; settings: selection with labelled antibiotic
# [4] = test system: E. coli KA797 cells carrying pUK21 with KPC-2 (Tat); assay: microbe, parasite or virus in culture; format: cell-based; settings: Escherichia coli, antibiotic alone
# TEM-1 Y105G = TEM-1 Y105G (Escherichia coli, UniProt P62593, Y103G); assay: Steady-state kinetics of substrate hydrolysis, TEM-1 Y105G; format: biochemical; settings: phosphate buffer pH 6.4, 25 °C
# CTX-M-14 Y105G = biological target: T1, CTX-M-14 Y105G (Escherichia coli, UniProt Q9L5C7, Y108G); format: biochemical
# T1 construct: 29 to 291 of CTX-M-14 (Q9L5C7); His tag with TEV cleavage site (N); made in house; host or cells: E. coli BL21 (DE3) pLysS
# [5] = test system: E. coli KA797 cells carrying pUK21 with BlaC WT (Tat); assay: microbe, parasite or virus in culture; format: cell-based; settings: Escherichia coli, antibiotic alone
# [6] = test system: E. coli KA797 cells carrying pUK21 with NmcA (pelB/Sec); assay: microbe, parasite or virus in culture; format: cell-based; settings: Escherichia coli, antibiotic alone
compound,measurement,setting,value
CC1(C)S[C@@H]2[C@H](NC(=O)[C@H](N)c3ccccc3)C(=O)N2[C@H]1C(=O)O [ampicillin],Significance (Fi AMP AVG),[1]; AA 105 Ala,+
same,Fi AMP AVG,[1]; AA 105 Ala,0.883
same,Fi AMP 1,"[1]; AA 105 Ala, replicate 1",0.406
same,Fi AMP 2,"[1]; AA 105 Ala, replicate 2",1.100
same,Fi AMP 3,"[1]; AA 105 Ala, replicate 3",1.141
same,Fi AMP AVG,[1]; AA 105 Arg,0.475
same,Fi AMP 1,"[1]; AA 105 Arg, replicate 1",0.818
same,Fi AMP 2,"[1]; AA 105 Arg, replicate 2",-0.366
same,Fi AMP 3,"[1]; AA 105 Arg, replicate 3",0.972
same,Fi AMP AVG,[1]; AA 105 Asn,-0.118
same,Fi AMP 1,"[1]; AA 105 Asn, replicate 1",-0.339
same,Fi AMP 2,"[1]; AA 105 Asn, replicate 2",-0.227
same,Fi AMP 3,"[1]; AA 105 Asn, replicate 3",0.211
same,Fi AMP AVG,[1]; AA 105 Asp,0.229
same,Fi AMP 1,"[1]; AA 105 Asp, replicate 1",0.470
same,Fi AMP 3,"[1]; AA 105 Asp, replicate 3",-0.012
same,Significance (Fi AMP AVG),[1]; AA 105 Cys,+
same,Fi AMP AVG,[1]; AA 105 Cys,0.500
same,Fi AMP 1,"[1]; AA 105 Cys, replicate 1",0.488
same,Fi AMP 2,"[1]; AA 105 Cys, replicate 2",0.257
same,Fi AMP 3,"[1]; AA 105 Cys, replicate 3",0.755
same,Fi AMP AVG,[1]; AA 105 Gln,0.694
same,Fi AMP 3,"[1]; AA 105 Gln, replicate 3",0.694
same,Fi AMP AVG,[1]; AA 105 Glu,0.120
same,Fi AMP 1,"[1]; AA 105 Glu, replicate 1",-0.486
same,Fi AMP 2,"[1]; AA 105 Glu, replicate 2",1.183
same,Fi AMP 3,"[1]; AA 105 Glu, replicate 3",-0.337
same,Fi AMP AVG,[1]; AA 105 Gly,0.342
same,Fi AMP 1,"[1]; AA 105 Gly, replicate 1",0.540
same,Fi AMP 2,"[1]; AA 105 Gly, replicate 2",-0.133
same,Fi AMP 3,"[1]; AA 105 Gly, replicate 3",0.619
same,Significance (Fi AMP AVG),[1]; AA 105 His,+
same,Fi AMP AVG,[1]; AA 105 His,2.187
same,Fi AMP 1,"[1]; AA 105 His, replicate 1",2.095
same,Fi AMP 2,"[1]; AA 105 His, replicate 2",2.262
same,Fi AMP 3,"[1]; AA 105 His, replicate 3",2.205
same,Fi AMP AVG,[1]; AA 105 Ile (WT),0.000
same,Fi AMP 1,"[1]; AA 105 Ile (WT), replicate 1",0.000
same,Fi AMP 2,"[1]; AA 105 Ile (WT), replicate 2",0.000
same,Fi AMP 3,"[1]; AA 105 Ile (WT), replicate 3",0.000
same,Fi AMP AVG,[1]; AA 105 Leu,0.259
same,Fi AMP 1,"[1]; AA 105 Leu, replicate 1",0.406
same,Fi AMP 2,"[1]; AA 105 Leu, replicate 2",-0.033
same,Fi AMP 3,"[1]; AA 105 Leu, replicate 3",0.405
same,Fi AMP AVG,[1]; AA 105 Lys,0.741
same,Fi AMP 1,"[1]; AA 105 Lys, replicate 1",0.741
same,Fi AMP AVG,[1]; AA 105 Met,0.434
same,Fi AMP 1,"[1]; AA 105 Met, replicate 1",0.165
same,Fi AMP 2,"[1]; AA 105 Met, replicate 2",0.714
same,Fi AMP 3,"[1]; AA 105 Met, replicate 3",0.423
same,Significance (Fi AMP AVG),[1]; AA 105 Phe,+
same,Fi AMP AVG,[1]; AA 105 Phe,3.116
same,Fi AMP 1,"[1]; AA 105 Phe, replicate 1",3.353
same,Fi AMP 2,"[1]; AA 105 Phe, replicate 2",2.935
same,Fi AMP 3,"[1]; AA 105 Phe, replicate 3",3.061
same,Fi AMP AVG,[1]; AA 105 Pro,0.423
same,Fi AMP 1,"[1]; AA 105 Pro, replicate 1",0.675
same,Fi AMP 2,"[1]; AA 105 Pro, replicate 2",0.012
same,Fi AMP 3,"[1]; AA 105 Pro, replicate 3",0.583
same,Fi AMP AVG,[1]; AA 105 Ser,0.267
same,Fi AMP 1,"[1]; AA 105 Ser, replicate 1",1.268
same,Fi AMP 2,"[1]; AA 105 Ser, replicate 2",-0.404
same,Fi AMP 3,"[1]; AA 105 Ser, replicate 3",-0.062
same,Fi AMP AVG,[1]; AA 105 Thr,0.222
same,Fi AMP 1,"[1]; AA 105 Thr, replicate 1",-0.283
same,Fi AMP 2,"[1]; AA 105 Thr, replicate 2",0.921
same,Fi AMP 3,"[1]; AA 105 Thr, replicate 3",0.029
same,Significance (Fi AMP AVG),[1]; AA 105 Trp,+
same,Fi AMP AVG,[1]; AA 105 Trp,3.126
same,Fi AMP 1,"[1]; AA 105 Trp, replicate 1",3.329
same,Fi AMP 2,"[1]; AA 105 Trp, replicate 2",2.872
same,Fi AMP 3,"[1]; AA 105 Trp, replicate 3",3.175
same,Significance (Fi AMP AVG),[1]; AA 105 Tyr,+
same,Fi AMP AVG,[1]; AA 105 Tyr,3.396
same,Fi AMP 1,"[1]; AA 105 Tyr, replicate 1",3.695
same,Fi AMP 2,"[1]; AA 105 Tyr, replicate 2",3.143
same,Fi AMP 3,"[1]; AA 105 Tyr, replicate 3",3.349
same,Fi AMP AVG,[1]; AA 105 Val,-0.310
same,Fi AMP 1,"[1]; AA 105 Val, replicate 1",-0.429
same,Fi AMP 3,"[1]; AA 105 Val, replicate 3",-0.191
same,WT abs Fi 1,"[1]; WT (Ile 105) absolute fitness, replicate 1",-1.907
same,WT abs Fi 2,"[1]; WT (Ile 105) absolute fitness, replicate 2",-1.350
same,WT abs Fi 3,"[1]; WT (Ile 105) absolute fitness, replicate 3",-1.353
same,Significance of average fitness,[2]; CTX-M-14 AA 105 Ala,-
same,Significance of average fitness,[2]; CTX-M-14 AA 105 Arg,-
same,Significance of average fitness,[2]; CTX-M-14 AA 105 Asn,-
same,Significance of average fitness,[2]; CTX-M-14 AA 105 Asp,-
same,Significance of average fitness,[2]; CTX-M-14 AA 105 Cys,-
same,Significance of average fitness,[2]; CTX-M-14 AA 105 Gln,-
same,Significance of average fitness,[2]; CTX-M-14 AA 105 Glu,-
same,Significance of average fitness,[2]; CTX-M-14 AA 105 Gly,-
same,Significance of average fitness,[2]; CTX-M-14 AA 105 His,-
same,Significance of average fitness,[2]; CTX-M-14 AA 105 Ile,-
same,Significance of average fitness,[2]; CTX-M-14 AA 105 Leu,-
same,Significance of average fitness,[2]; CTX-M-14 AA 105 Lys,-
same,Significance of average fitness,[2]; CTX-M-14 AA 105 Met,-
same,Significance of average fitness,[2]; CTX-M-14 AA 105 Pro,-
same,Significance of average fitness,[2]; CTX-M-14 AA 105 Ser,-
same,Significance of average fitness,[2]; CTX-M-14 AA 105 Thr,-
same,Significance of average fitness,[2]; CTX-M-14 AA 105 Val,-
same,"WT abs Fi 2 (absolute fitness of wild type, Replicate 2)",[2]; CTX-M-14 WT (Tyr 105),0.605
same,Fi AVG (average fitness of replicates),[3]; KPC-2 AA 105 = Ala,-2.717
same,Fi AVG (average fitness of replicates),[3]; KPC-2 AA 105 = Arg,-1.311
same,Significance of average fitness,[3]; KPC-2 AA 105 = Arg,-
same,Fi AVG (average fitness of replicates),[3]; KPC-2 AA 105 = Asn,-2.270
same,Significance of average fitness,[3]; KPC-2 AA 105 = Asn,-
same,Fi AVG (average fitness of replicates),[3]; KPC-2 AA 105 = Cys,-1.421
same,Significance of average fitness,[3]; KPC-2 AA 105 = Cys,-
same,Fi AVG (average fitness of replicates),[3]; KPC-2 AA 105 = Gln,-2.210
same,Significance of average fitness,[3]; KPC-2 AA 105 = Gln,-
same,Fi AVG (average fitness of replicates),[3]; KPC-2 AA 105 = Glu,-2.582
same,Significance of average fitness,[3]; KPC-2 AA 105 = Glu,-
same,Fi AVG (average fitness of replicates),[3]; KPC-2 AA 105 = Gly,-1.606
same,Significance of average fitness,[3]; KPC-2 AA 105 = Gly,-
same,Fi AVG (average fitness of replicates),[3]; KPC-2 AA 105 = His,-0.658
same,Fi AVG (average fitness of replicates),[3]; KPC-2 AA 105 = Leu,-1.411
same,Significance of average fitness,[3]; KPC-2 AA 105 = Leu,-
same,Fi AVG (average fitness of replicates),[3]; KPC-2 AA 105 = Met,-2.639
same,Significance of average fitness,[3]; KPC-2 AA 105 = Met,-
same,Fi AVG (average fitness of replicates),[3]; KPC-2 AA 105 = Phe,-0.181
same,Fi AVG (average fitness of replicates),[3]; KPC-2 AA 105 = Pro,-1.601
same,Significance of average fitness,[3]; KPC-2 AA 105 = Pro,-
same,Fi AVG (average fitness of replicates),[3]; KPC-2 AA 105 = Ser,-2.329
same,Significance of average fitness,[3]; KPC-2 AA 105 = Ser,-
same,Fi AVG (average fitness of replicates),[3]; KPC-2 AA 105 = Thr,-2.338
same,Fi AVG (average fitness of replicates),"[3]; KPC-2 AA 105 = Trp (WT, reference)",0.000
same,Fi AVG (average fitness of replicates),[3]; KPC-2 AA 105 = Tyr,-1.608
same,Significance of average fitness,[3]; KPC-2 AA 105 = Tyr,-
same,Fi AVG (average fitness of replicates),[3]; KPC-2 AA 105 = Val,-2.672
same,Significance of average fitness,[3]; KPC-2 AA 105 = Val,-
same,WT abs Fi 1 (absolute fitness),"[3]; KPC-2 WT (Trp 105), replicate 1",0.183
same,WT abs Fi 2 (absolute fitness),"[3]; KPC-2 WT (Trp 105), replicate 2",0.061
same,WT abs Fi 3 (absolute fitness),"[3]; KPC-2 WT (Trp 105), replicate 3",0.422
same,MIC,[4],200 µg/mL
same,kcat,TEM-1 Y105G,601 ± 9 s⁻¹
same,kcat,"CTX-M-14 Y105G; phosphate buffer pH 6.4, 25 °C",48 ± 2 s⁻¹
same,Km,"CTX-M-14 Y105G; read-out: KM^app, phosphate buffer pH 6.4, 25 °C",297 ± 10 µM
same,MIC,[5],50 µg/mL
same,MIC,[6],400 µg/mL
